Among the test systems are RPMI-8226 leukemia; HCT-15 colon; MDA-MB-231 breast; ACHN renal; HCT-116 colon; NCI/ADR-RES ovarian; LOX IMVI melanoma; CAKI-1 renal; SF-295 CNS; MALME-3M melanoma.
Assay in all cases: DTP human tumour cell line panel, 48 h

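Where inhibition never reached the appropriate level, the endpoint shown equals the highest concentration tested. Otherwise, values were interpolated linearly from a five-concentration, 48-hour dose response in 96-well plates. GI50 = concentration required for 50% inhibition of growth. TGI is the concentration that stops growth completely.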

Take `Cc1c(C(=O)OCc2ccccc2)[n+](=O)c2cc(Cl)c(Cl)cc2n1[O-]`: the TGI (as a rule, the concentration at which net growth stops) worked out at 21.2 µM in the test with RPMI-8226 leukemia; 34.1 µM in the test with HCT-15 colon; 38.2 µM with MDA-MB-231 breast; 53.7 µM in the test with ACHN renal; 27.2 µM with HCT-116 colon; 48.4 µM in the test on NCI/ADR-RES ovarian. Also, the TGI in the test on LOX IMVI melanoma was found to be 35.7 µM; in the test on CAKI-1 renal, 28.2 µM; in the test with SF-295 CNS, 37.4 µM.
Regarding `O=c1c(-c2ccccc2)c(SCCO)n(-c2ccccc2)c(=S)n1-c1ccccc1`, the TGI in the test with RPMI-8226 leukemia, in the test on HCT-15 colon, in the test with ACHN renal, in the test on HCT-116 colon, with NCI/ADR-RES ovarian and in the test with LOX IMVI melanoma was greater than 100 µM in each case. Further, the TGI in the test on MALME-3M melanoma, in the test on CAKI-1 renal and in the test with SF-295 CNS was greater than 100 µM in each case.
Take `COc1ccc(/C(Cl)=C/c2cc(OC)ccc2OC)cc1`: the TGI with RPMI-8226 leukemia, in the test on HCT-15 colon, with ACHN renal, with HCT-116 colon, in the test with MALME-3M melanoma and with SF-295 CNS was greater than 100 µM in each case.
For the compound `O=C1NC(=O)C(C(CC(=O)c2ccc(Cl)cc2)c2ccc(Cl)cc2)C(=O)N1` (centres undefined), the TGI in the test with RPMI-8226 leukemia, with HCT-15 colon, in the test with MDA-MB-231 breast, with ACHN renal, in the test on HCT-116 colon and with LOX IMVI melanoma was greater than 100 µM each time. Also, the TGI was 7.63 µM in the test on MALME-3M melanoma and greater than 100 µM with SF-295 CNS.
Regarding `CCOP(=O)(O)CN1CCNCCN(CP(=O)(O)OCC)CCNCC1`, the TGI in the test on RPMI-8226 leukemia, with HCT-15 colon, in the test on MDA-MB-231 breast, in the test with ACHN renal, in the test with HCT-116 colon and in the test on NCI/ADR-RES ovarian was greater than 100 µM throughout. Also, the TGI in the test with LOX IMVI melanoma, in the test with CAKI-1 renal and with SF-295 CNS was greater than 100 µM each time.
As for `CC1=NN(C(=O)c2ccc(Cl)cc2)C(=O)/C1=C/c1ccccc1O`, the TGI with RPMI-8226 leukemia, in the test with HCT-15 colon, in the test with ACHN renal, in the test on HCT-116 colon, in the test with LOX IMVI melanoma and in the test with MALME-3M melanoma was greater than 100 µM in each case. Besides, the TGI in the test with CAKI-1 renal and in the test on SF-295 CNS was greater than 100 µM throughout.
Take `Cc1cc(C)c2c(c1)C(=O)/C(=C/c1ccccc1C(=O)O)C2`: the TGI in the test on RPMI-8226 leukemia, with HCT-15 colon, with MDA-MB-231 breast, in the test on ACHN renal, in the test with HCT-116 colon and in the test with LOX IMVI melanoma was greater than 100 µM each time. The TGI with MALME-3M melanoma, with CAKI-1 renal and in the test with SF-295 CNS was greater than 100 µM in each case.
On to `CN=C(/N=c1\ssc(=NC)n1C)N(C)C`, for which the TGI with RPMI-8226 leukemia, in the test on ACHN renal, with LOX IMVI melanoma, in the test on CAKI-1 renal and in the test with SF-295 CNS was greater than 100 µM in each case.
Regarding `COc1ccc(Nc2ccc3ccccc3c2-c2c(O)ccc3ccccc23)cc1`, the TGI with RPMI-8226 leukemia came out at 27.4 µM; with HCT-15 colon it was 38.5 µM; with MDA-MB-231 breast, 45.7 µM; in the test on ACHN renal, 29.8 µM; in the test with HCT-116 colon, 40.5 µM; in the test with NCI/ADR-RES ovarian, 36.5 µM. Moreover, the TGI in the test on LOX IMVI melanoma came out at 37.7 µM; in the test with CAKI-1 renal, 31.7 µM; with SF-295 CNS it was 34.6 µM.
Consider `Cn1c(=O)oc2nc(-c3ccccc3)cc(C(F)(F)F)c21`, for which the TGI in the test on RPMI-8226 leukemia, in the test with HCT-15 colon, in the test on MDA-MB-231 breast, in the test on ACHN renal, in the test with HCT-116 colon and in the test on NCI/ADR-RES ovarian was greater than 100 µM in each case. Also, the TGI in the test on CAKI-1 renal and in the test with SF-295 CNS was greater than 100 µM in each case.
Turning to `CC(Oc1ccccc1Cl)C(=O)NN1C(=O)CSC1c1ccccc1` (centres undefined), the concentration for total growth inhibition (TGI) in the test with RPMI-8226 leukemia, in the test with HCT-15 colon, in the test on MDA-MB-231 breast, with ACHN renal, in the test on HCT-116 colon and in the test with NCI/ADR-RES ovarian was greater than 100 µM each time. In addition, the total growth inhibition concentration (TGI) in the test on LOX IMVI melanoma, in the test on CAKI-1 renal and in the test with SF-295 CNS was greater than 100 µM in each case.
`COc1cccc(C=O)c1[O-].[O]=[U](=[O])([OH2+])[OH2+]`: the TGI in the test with RPMI-8226 leukemia was greater than 100 µM; with HCT-15 colon it was greater than 100 µM; in the test on ACHN renal, 79.8 µM; in the test on HCT-116 colon, greater than 100 µM; with LOX IMVI melanoma it was greater than 100 µM; in the test on MALME-3M melanoma, greater than 100 µM. Besides, the TGI in the test with CAKI-1 renal is greater than 100 µM; in the test with SF-295 CNS, 78.6 µM. Besides, in the test with CAKI-1 renal, the GI50 – broadly, the concentration at which growth is held to half of that of the control – is greater than 100 µM.
With `Cn1c(-c2ccc(/C=N/NC(=S)N/N=C/c3ccc(-c4c[n+]5ccsc5n4C)cc3)cc2)c[n+]2ccsc12`, the TGI in the test on RPMI-8226 leukemia, with HCT-15 colon, in the test on MDA-MB-231 breast, with ACHN renal, in the test with HCT-116 colon and with NCI/ADR-RES ovarian was greater than 100 µM in each case. In the test on SF-295 CNS, this compound registered a TGI greater than 100 µM.
On to `NCc1cccc(O)c1O`, for which the TGI with RPMI-8226 leukemia, in the test with HCT-15 colon, in the test on ACHN renal, in the test with HCT-116 colon, with LOX IMVI melanoma and in the test with MALME-3M melanoma was greater than 100 µM in each case. The TGI with CAKI-1 renal and with SF-295 CNS was greater than 100 µM each time.
Consider `O=C(Nc1ccccc1C(=O)NCc1ccccc1)/C(=C/c1ccccc1)NC(=O)c1ccccc1`, for which the TGI in the test on RPMI-8226 leukemia, in the test on HCT-15 colon, in the test with MDA-MB-231 breast, in the test on ACHN renal, in the test with HCT-116 colon and in the test with NCI/ADR-RES ovarian was greater than 100 µM throughout. Also, the TGI with LOX IMVI melanoma, in the test on CAKI-1 renal and in the test with SF-295 CNS was greater than 100 µM each time.
With `c1ccc(/C(=N/Nc2ccncn2)c2ccccn2)cc1`, the TGI in the test on RPMI-8226 leukemia was greater than 100 µM; in the test on HCT-15 colon it was greater than 100 µM; with MDA-MB-231 breast it was greater than 100 µM; in the test on ACHN renal it was 88.1 µM; with HCT-116 colon it was greater than 100 µM; in the test with NCI/ADR-RES ovarian, 49 µM. For the same compound, the TGI is greater than 100 µM with CAKI-1 renal and 64.9 µM with SF-295 CNS.
In the case of `CC1(C)CC(=O)C2(CC(CSc3ccccc3)C(CS(=O)(=O)c3ccccc3)C2)C(=O)C1` (centres undefined), the TGI in the test on RPMI-8226 leukemia, in the test with HCT-15 colon, in the test on MDA-MB-231 breast, in the test with ACHN renal, with HCT-116 colon and with NCI/ADR-RES ovarian was greater than 100 µM in each case. Besides, the TGI with LOX IMVI melanoma, with CAKI-1 renal and in the test with SF-295 CNS was greater than 100 µM in each case.
`CCN=C1C=CC(=C(c2ccc(N(CC)CC)cc2)c2ccc(N(CC)CC)cc2)c2ccccc21`: the GI50 in the test with RPMI-8226 leukemia is 0.0233 µM; in the test with HCT-15 colon it was 0.299 µM; in the test on ACHN renal, 0.194 µM; with NCI/ADR-RES ovarian, 0.35 µM; in the test on CAKI-1 renal, 0.0335 µM. For the same compound, the TGI in the test with RPMI-8226 leukemia came to 0.0702 µM; in the test on HCT-15 colon, 1.21 µM; in the test with ACHN renal it was 1.07 µM; in the test with NCI/ADR-RES ovarian, 2.11 µM; with CAKI-1 renal it was 0.273 µM.
Consider `COc1ccc(C(=O)CC(c2ccccc2)[C@H]2C(c3ccc(OC)cc3)=Nc3c(nc(SC)n(C)c3=O)NC2c2ccccc2)cc1` (some centres undefined), for which the TGI in the test with RPMI-8226 leukemia, in the test on HCT-15 colon, with MDA-MB-231 breast, with HCT-116 colon, in the test on NCI/ADR-RES ovarian and in the test with LOX IMVI melanoma was greater than 100 µM throughout. The TGI in the test on CAKI-1 renal and in the test on SF-295 CNS was greater than 100 µM throughout.
On to `C=CCC1C(O[Si](C)(C)C(C)(C)C)C(CO[Si](C)(C)C(C)(C)C)OC1n1ccc(=O)[nH]c1=O` (centres undefined), for which the TGI came out at 4.89 µM in the test with RPMI-8226 leukemia; 2.64 µM with HCT-15 colon; 4.52 µM with MDA-MB-231 breast; 2.5 µM with HCT-116 colon; 3.48 µM in the test on NCI/ADR-RES ovarian; 2.25 µM in the test with LOX IMVI melanoma. The compound further gave a TGI in the test with SF-295 CNS of 3.59 µM.
In the case of `COc1cc(C2C3=C(COC3=O)Oc3cc4c(cc32)OCO4)cc(OC)c1O` (centres undefined), the TGI in the test on RPMI-8226 leukemia is greater than 41.9 µM; in the test on HCT-15 colon, greater than 100 µM; with MDA-MB-231 breast it was greater than 24.9 µM; in the test with ACHN renal, 22.9 µM; in the test on HCT-116 colon, 0.208 µM; in the test on LOX IMVI melanoma it was 19 µM. The TGI stood at 39.5 µM with MALME-3M melanoma, 21.6 µM in the test on CAKI-1 renal and 15.4 µM in the test with SF-295 CNS.
Turning to `O=C1C=CC(=O)c2c(O)c(NCCOCCO)c(Cl)c(O)c21`, the TGI was greater than 100 µM in the test on RPMI-8226 leukemia; 3.64 µM in the test on HCT-15 colon; 28.7 µM in the test with ACHN renal; 8.32 µM in the test with HCT-116 colon; 16.7 µM with LOX IMVI melanoma; 8.43 µM in the test on MALME-3M melanoma. The results for the TGI in the test with CAKI-1 renal and in the test with SF-295 CNS were 39.6 µM and 24.1 µM, respectively.
With `CCCSc1ccc2[nH]c(N3C(=O)/C(=C/c4ccccc4)N=C3c3ccccc3)cc2c1`, the TGI in the test with RPMI-8226 leukemia was 42.9 µM; in the test on HCT-15 colon, greater than 50 µM; in the test with ACHN renal, greater than 50 µM; with HCT-116 colon it was greater than 50 µM; in the test with NCI/ADR-RES ovarian it was greater than 50 µM; in the test with LOX IMVI melanoma, greater than 50 µM. For the same compound, the TGI with MALME-3M melanoma and in the test with CAKI-1 renal was greater than 50 µM in each case.

The values above are taken from PubChem BioAssay (NCI).
